Measured values reported in the supplement of paper PMC10307832.

Compound: c1ccc2c(CCNc3ccc(Nc4ccncc4)cc3)c[nH]c2c1 [Serdemetan] + O=C(c1cc(Cc2n[nH]c(=O)c3ccccc23)ccc1F)N1CCN(C(=O)C2CC2)CC1 [Olaparib] (partner 8 µM)
Test: relative viability (nuclei count vs DMSO), 5 days (fraction); higher = more cells survive
Conditions: first compound 0.04 µM
In short: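 Each reported value is a median over duplicate plates. It expresses relative viability: treated-well nuclei count divided by vehicle-well nuclei count. Lung cancer cell lines in 1536-well plates were dosed by pin tool a day after seeding, alone with one drug or with a fixed anchor-drug dose plus five library-drug doses (not always all listed) in √10 steps, and nuclei were counted after 5 days.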

Cell Line	relative viability
NCI-H522	0.595
NCI-H727	0.598
NCI-H1650	0.692
EBC-1	0.694
NCI-H1703	0.427
NCI-H1993	0.982
SW 1573	0.571
NCI-H838	0.739
LCLC-103H	0.742
NCI-H520	0.335
NCI-H2126	0.885
EMC-BAC-2	0.447
NCI-H2085	0.818
Calu-6	0.561
HCC-366	0.22
NCI-H1666	0.735
NCI-H596	0.694
LK-2	0.715
NCI-H2087	0.481
NCI-H2342	0.621
SK-MES-1	0.688
H3255	0.559
COR-L23	0.316
COR-L 105	0.774
IA-LM	0.883
LOU-NH91	0.897
ChaGo-K-1	0.401
NCI-H2170	0.641

Cell Line	relative viability
NCI-H2405	0.809
HOP-62	0.482
HCC-44	0.94
A549	0.208
SW 900	1.03
LU99A	0.245
BEN	0.975
HARA	0.875
HCC-78	0.847
NCI-H322M	0.667
LCLC-97TM1	0.349
NCI-H2009	0.777
A-427	0.693
NCI-H441	0.513
NCI-H661	0.711
NCI-H1734	0.327
NCI-H460	0.342
NCI-H2347	0.568
SK-LU-1	0.463
NCI-H1395	0.445
201T	0.821
NCI-H1915	0.238
HCC-827	0.631
LXF-289	1.1
NCI-H23	0.314
NCI-H1299	0.953
NCI-H647	0.51

Same assay, conditions: first compound 0.1265 µM

Cell Line	relative viability
NCI-H522	0.665
NCI-H727	0.725
NCI-H1650	0.781
EBC-1	0.669
NCI-H1703	0.397
NCI-H1993	0.969
SW 1573	0.464
NCI-H838	0.759
LCLC-103H	0.727
NCI-H520	0.347
NCI-H2126	0.914
EMC-BAC-2	0.446
NCI-H2085	0.676
Calu-6	0.612
HCC-366	0.0954
NCI-H1666	0.701
NCI-H596	0.657
LK-2	0.645
NCI-H2087	0.473

Cell Line	relative viability
NCI-H2342	0.445
SK-MES-1	0.687
H3255	0.529
COR-L23	0.324
COR-L 105	0.677
IA-LM	0.886
LOU-NH91	0.889
ChaGo-K-1	0.269
NCI-H2170	0.571
NCI-H2405	0.829
HOP-62	0.394
HCC-44	0.943
A549	0.382
SW 900	0.892
LU99A	0.185
BEN	0.98
HARA	0.892
NCI-H1648	0.744
HCC-78	0.731

Cell Line	relative viability
NCI-H322M	0.757
LCLC-97TM1	0.358
NCI-H2009	0.687
A-427	0.639
NCI-H441	0.422
NCI-H661	0.648
NCI-H1734	0.183
NCI-H460	0.344
NCI-H2347	0.535
SK-LU-1	0.369
NCI-H1395	0.442
201T	0.8
NCI-H1915	0.242
HCC-827	0.594
LXF-289	1.11
NCI-H23	0.364
NCI-H1299	0.91
NCI-H647	0.495

Same assay, conditions: first compound 0.4 µM

Cell Line	relative viability
NCI-H522	0.65
NCI-H727	0.679
NCI-H1650	0.802
EBC-1	0.703
NCI-H1703	0.415
NCI-H1993	1.18
SW 1573	0.445
NCI-H838	0.671
LCLC-103H	0.661
NCI-H520	0.27
NCI-H2126	0.855
EMC-BAC-2	0.473
NCI-H2085	0.597
Calu-6	0.555
HCC-366	0.0557
NCI-H1666	0.668
NCI-H596	0.517
LK-2	0.782
NCI-H2087	0.433
NCI-H2342	0.416
SK-MES-1	0.635
H3255	0.527
COR-L23	0.386
COR-L 105	0.542
IA-LM	0.839
ChaGo-K-1	0.258
NCI-H2170	0.544

Cell Line	relative viability
NCI-H2405	0.86
HOP-62	0.489
HCC-44	0.979
A549	0.269
SW 900	0.861
LU99A	0.17
BEN	1.15
HARA	0.674
NCI-H1648	0.633
HCC-78	0.749
NCI-H322M	0.729
LCLC-97TM1	0.403
NCI-H2009	0.688
A-427	0.711
NCI-H441	0.5
NCI-H661	0.634
NCI-H1734	0.171
NCI-H460	0.349
NCI-H2347	0.59
SK-LU-1	0.479
NCI-H1395	0.443
201T	0.822
NCI-H1915	0.223
LXF-289	0.939
NCI-H23	0.298
NCI-H1299	0.869
NCI-H647	0.534

Same assay, conditions: first compound 1.265 µM

Cell Line	relative viability
NCI-H522	0.458
NCI-H727	0.484
NCI-H1650	0.671
EBC-1	0.594
NCI-H1703	0.386
NCI-H1993	1.01
SW 1573	0.21
NCI-H838	0.669
LCLC-103H	0.593
NCI-H520	0.199
NCI-H2126	0.724
EMC-BAC-2	0.338
NCI-H2085	0.44
Calu-6	0.412
HCC-366	0.0411
NCI-H596	0.532
LK-2	0.444
NCI-H2087	0.207
NCI-H2342	0.236
SK-MES-1	0.522
H3255	0.508
COR-L23	0.313
COR-L 105	0.603
IA-LM	0.392
ChaGo-K-1	0.168
NCI-H2170	0.469

Cell Line	relative viability
NCI-H2405	0.795
HCC-44	0.851
A549	0.141
SW 900	0.691
LU99A	0.124
BEN	0.81
HARA	0.476
NCI-H1648	0.399
HCC-78	0.79
NCI-H322M	0.469
LCLC-97TM1	0.174
NCI-H2009	0.496
A-427	0.66
NCI-H441	0.3
NCI-H661	0.549
NCI-H1734	0.114
NCI-H460	0.182
NCI-H2347	0.424
SK-LU-1	0.308
NCI-H1395	0.478
201T	0.543
NCI-H1915	0.208
HCC-827	0.509
LXF-289	0.794
NCI-H1299	0.787
NCI-H647	0.27

Same assay, conditions: first compound 4 µM

Cell Line	relative viability
NCI-H522	0.477
NCI-H727	0.726
NCI-H1650	0.419
EBC-1	0.547
NCI-H1703	0.333
NCI-H1993	0.778
SW 1573	0.296
NCI-H838	0.874
LCLC-103H	0.728
NCI-H520	0.26
NCI-H2126	0.751
EMC-BAC-2	0.403
NCI-H2085	0.393
Calu-6	0.362
HCC-366	0.0631
NCI-H1666	0.678
NCI-H596	0.475
LK-2	0.57
NCI-H2087	0.217
NCI-H2342	0.334

Cell Line	relative viability
SK-MES-1	0.43
H3255	0.566
COR-L23	0.289
COR-L 105	0.565
IA-LM	0.396
LOU-NH91	0.877
ChaGo-K-1	0.257
NCI-H2170	0.352
NCI-H2405	0.779
HOP-62	0.263
HCC-44	0.815
A549	0.147
SW 900	0.459
LU99A	0.136
BEN	0.594
HARA	0.362
NCI-H1648	0.425
HCC-78	0.592
NCI-H322M	0.655
